Assay results as given in PubChem BioAssay AID2060489 (Molecular Pharmacology Branch, DTP, NCI, 2025).
pIC50: −log10 of the molar value. Blank lines part the entries; values can stand above or below the compound they belong to.

System: 922993-354-T-J3-PDC complex spheroids, viability
Assay: Anticancer human tumor 922993-354-T-J3-PDC patient-derived endometrial carcinoma cell line growth inhibition [GQUAD]
Settings: for pIC50: curve of first compound; for viability, T/C: stronger effect = lower value
Method in brief: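 Tumor cells were grown as complex spheroids with HUVEC endothelial cells and mesenchymal stem cells as stroma. G-quadruplex stabilizers were combined with targeted agents over half-log dilutions from near the clinical Cmax, or from 10 microM.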

[1] = second compound 0.0316 µM, first compound 0.0316 µM
[2] = second compound 0.0316 µM, first compound 0.1 µM
[3] = second compound 0.0316 µM, first compound 0.316 µM
[4] = second compound 0.0316 µM, first compound 1 µM
[5] = second compound 0.0316 µM, first compound 3.16 µM
[6] = second compound 0.0316 µM, first compound 10 µM
[7] = second compound 0.1 µM, first compound 0.0316 µM
[8] = second compound 0.1 µM, first compound 0.1 µM
[9] = second compound 0.1 µM, first compound 0.316 µM
[10] = second compound 0.1 µM, first compound 1 µM
[11] = second compound 0.1 µM, first compound 3.16 µM
[12] = second compound 0.1 µM, first compound 10 µM
[13] = second compound 0.316 µM, first compound 0.0316 µM
[14] = second compound 0.316 µM, first compound 0.1 µM
[15] = second compound 0.316 µM, first compound 0.316 µM
[16] = second compound 0.316 µM, first compound 1 µM
[17] = second compound 0.316 µM, first compound 3.16 µM
[18] = second compound 0.316 µM, first compound 10 µM
[19] = second compound 1 µM, first compound 0.0316 µM
[20] = second compound 1 µM, first compound 0.1 µM
[21] = second compound 1 µM, first compound 0.316 µM
[22] = second compound 1 µM, first compound 1 µM
[23] = second compound 1 µM, first compound 3.16 µM
[24] = second compound 1 µM, first compound 10 µM
[25] = second compound 3.16 µM, first compound 0.0316 µM
[26] = second compound 3.16 µM, first compound 0.1 µM
[27] = second compound 3.16 µM, first compound 0.316 µM
[28] = second compound 3.16 µM, first compound 1 µM
[29] = second compound 3.16 µM, first compound 3.16 µM
[30] = second compound 3.16 µM, first compound 10 µM
[31] = second compound 10 µM, first compound 0.0316 µM
[32] = second compound 10 µM, first compound 0.1 µM
[33] = second compound 10 µM, first compound 0.316 µM
[34] = second compound 10 µM, first compound 1 µM
[35] = second compound 10 µM, first compound 3.16 µM
[36] = second compound 10 µM, first compound 10 µM
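Note: spheroids exposed to compounds for seven days.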
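Throughout, for viability, T/C: 100% = DMSO vehicle control viability.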

pIC50 (second compound 0.0316 µM): > 7.50
pIC50 (second compound 0.1 µM): > 7.50
pIC50 (second compound 0.316 µM): > 7.50
pIC50 (second compound 1 µM): > 7.50
pIC50 (second compound 3.16 µM): > 7.50
pIC50 (second compound 10 µM): > 7.50
Structure (SMILES): CC1COCCN1c1cc(-c2ccnn2C)c2ccnc(-c3ccn[nH]3)c2n1 (stereo unspecified) + Cc1cnc(CNC(=O)c2c(=O)c3ccc(N4CCCN(C)CC4)nc3n3c2sc2ccccc23)cn1
viability, T/C [1]: 49.1%
viability, T/C [2]: 50.3%
viability, T/C [3]: 42.2%
viability, T/C [4]: 24.7%
viability, T/C [5]: 24.3%
viability, T/C [6]: 21.9%
viability, T/C [7]: 45.4%
viability, T/C [8]: 42.9%
viability, T/C [9]: 25.3%
viability, T/C [10]: 25.7%
viability, T/C [11]: 28.9%
viability, T/C [12]: 20.7%
viability, T/C [13]: 45.5%
viability, T/C [14]: 44.4%
viability, T/C [15]: 37.2%
viability, T/C [16]: 33.5%
viability, T/C [17]: 22.9%
viability, T/C [18]: 20.9%
viability, T/C [19]: 43.7%
viability, T/C [20]: 51.7%
viability, T/C [21]: 46%
viability, T/C [22]: 43.8%
viability, T/C [23]: 22.9%
viability, T/C [24]: 6.94%
viability, T/C [25]: 50.1%
viability, T/C [26]: 43.8%
viability, T/C [27]: 46.6%
viability, T/C [28]: 36.6%
viability, T/C [29]: 8.14%
viability, T/C [30]: 0.53%
viability, T/C [31]: 51.9%
viability, T/C [32]: 42%
viability, T/C [33]: 46.3%
viability, T/C [34]: 22.2%
viability, T/C [35]: 0.68%
viability, T/C [36]: 0.18%

Structure (SMILES): COc1cc(C2c3cc4c(cc3C(OC3OC5COC(C)OC5C(O)C3O)C3COC(=O)C23)OCO4)cc(OC)c1O (stereo unspecified) + CN(C)c1ccc(Nc2c3ccc(NC(=O)CCN4CCCC4)cc3nc3cc(NC(=O)CCN4CCCC4)ccc23)cc1
pIC50 (second compound 0.0316 µM): < 5.00
pIC50 (second compound 0.1 µM): 5.02
pIC50 (second compound 0.316 µM): 5.04
pIC50 (second compound 1 µM): 5.05
pIC50 (second compound 3.16 µM): < 5.00
pIC50 (second compound 10 µM): < 5.00
viability, T/C [1]: 116%
viability, T/C [2]: 90%
viability, T/C [3]: 90.7%
viability, T/C [4]: 88.1%
viability, T/C [5]: 72.5%
viability, T/C [6]: 58.3%
viability, T/C [7]: 109%
viability, T/C [8]: 102%
viability, T/C [9]: 91.3%
viability, T/C [10]: 85.2%
viability, T/C [11]: 81.1%
viability, T/C [12]: 46.3%
viability, T/C [13]: 90.6%
viability, T/C [14]: 101%
viability, T/C [15]: 83.7%
viability, T/C [16]: 79.5%
viability, T/C [17]: 82.9%
viability, T/C [18]: 46.9%
viability, T/C [19]: 79.7%
viability, T/C [20]: 79.7%
viability, T/C [21]: 105%
viability, T/C [22]: 71.5%
viability, T/C [23]: 95.8%
viability, T/C [24]: 46.1%
viability, T/C [25]: 109%
viability, T/C [26]: 99.3%
viability, T/C [27]: 114%
viability, T/C [28]: 98.5%
viability, T/C [29]: 91.8%
viability, T/C [30]: 58.3%
viability, T/C [31]: 94.4%
viability, T/C [32]: 106%
viability, T/C [33]: 111%
viability, T/C [34]: 79.3%
viability, T/C [35]: 106%
viability, T/C [36]: 70.5%

Structure (SMILES): C#Cc1c(F)ccc2cc(O)cc(-c3ncc4c(N5CC6CCC(C5)N6)nc(OCC56CCCN5CC(F)C6)nc4c3F)c12 (stereo unspecified) + Cc1[nH]c2ccc(F)cc2c1-c1nc2c3cccnc3c3ncccc3c2[nH]1
pIC50 (second compound 0.0316 µM): < 5.00
pIC50 (second compound 0.1 µM): < 5.00
pIC50 (second compound 0.316 µM): < 5.00
pIC50 (second compound 1 µM): < 5.00
pIC50 (second compound 3.16 µM): < 5.00
pIC50 (second compound 10 µM): < 5.00
viability, T/C [1]: 112%
viability, T/C [2]: 93.3%
viability, T/C [3]: 106%
viability, T/C [4]: 98.2%
viability, T/C [5]: 96%
viability, T/C [6]: 80.7%
viability, T/C [7]: 103%
viability, T/C [8]: 98.4%
viability, T/C [9]: 94.7%
viability, T/C [10]: 107%
viability, T/C [11]: 116%
viability, T/C [12]: 110%
viability, T/C [13]: 87%
viability, T/C [14]: 88.8%
viability, T/C [15]: 94%
viability, T/C [16]: 99.2%
viability, T/C [17]: 87.8%
viability, T/C [18]: 124%
viability, T/C [19]: 83.4%
viability, T/C [20]: 108%
viability, T/C [21]: 99.5%
viability, T/C [22]: 120%
viability, T/C [23]: 125%
viability, T/C [24]: 114%
viability, T/C [25]: 103%
viability, T/C [26]: 87.6%
viability, T/C [27]: 121%
viability, T/C [28]: 107%
viability, T/C [29]: 114%
viability, T/C [30]: 113%
viability, T/C [31]: 91.6%
viability, T/C [32]: 104%
viability, T/C [33]: 101%
viability, T/C [34]: 110%
viability, T/C [35]: 127%
viability, T/C [36]: 113%
